Drawing on patent publication US8598367B2, “Nitrogen-containing heterocyclic compound and pest control agent” (Nippon Soda Co., Ltd., priority 2008, dated 2013), this text covers insect mortality rate for 2 molecules.

Data set [1] deals with Tetranychus urticae with organophosphate resistance. Put plainly: Test Case 2 Efficacy Against Tetranychus urticae. The following applies: 125 ppm wettable powder (Formulation Example 1) applied to bean leaf with female adults; 25° C., humidity 65%; after three days.
The next data set relates to Aphis gossypii. Put plainly: Test case 1 Efficacy against Aphis gossypii. The settings on record: 125 ppm emulsion (Formulation Example 2) applied to cucumbers parasitized with offspring; 25° C., humidity 65%; after five days. It counts as in vivo. The text has this:
Test case 1 Efficacy against Aphis gossypii
The test was repeated twice.

In data set [1], `Cc1cc(Cl)ccc1N=CN(C)C` [chlordimeform] displayed an insect mortality rate of 9%.

As for `Cc1nc(N(C)C)nc(OC(=O)N(C)C)c1C` [pirimicarb], the insect mortality rate in the data set on Aphis gossypii is recorded as 9%.
